ChEMBL document CHEMBL1201862, “PubChem BioAssay data set” (2004)
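Briefly, cells in 96-well plates were exposed to five compound concentrations for 48 h, and endpoints were estimated by linear interpolation. GI50 is the concentration that inhibits growth by half.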 Calls of active or inactive are those of the source. Cut-off read from the data, not from the text of the source: active = GI50 up to about 1.1 µM and inactive = higher.

Columns and labels:
Assay in all cases: NCI-60 cell line screen, 48 h
SK-MEL-28 = test system: SK-MEL-28
OVCAR-4 = test system: OVCAR-4
SK-OV-3 = test system: SK-OV-3
SN12C = test system: SN12C
HL-60 = test system: HL-60
CAKI-1 = test system: CAKI-1
SR = test system: SR
SF-295 = test system: SF-295
NCI-H460 = test system: NCI-H460
OVCAR-8 = test system: OVCAR-8
NCI-H226 = test system: NCI-H226
Malme-3M = test system: Malme-3M
SK-MEL-5 = test system: SK-MEL-5
SW-620 = test system: SW-620
TK-10 = test system: TK-10
M14 = test system: M14
LOX IMVI = test system: LOX IMVI
NCI/ADR-RES = test system: NCI/ADR-RES
MCF7 = test system: MCF7

| Structure (SMILES) | GI50 (SK-MEL-28) | GI50 (OVCAR-4) | GI50 (SK-OV-3) | GI50 (SN12C) | GI50 (HL-60) | GI50 (CAKI-1) | GI50 (SR) | GI50 (SF-295) | GI50 (NCI-H460) | GI50 (OVCAR-8) | GI50 (NCI-H226) | GI50 (Malme-3M) | GI50 (SK-MEL-5) | GI50 (SW-620) | GI50 (TK-10) | GI50 (M14) | GI50 (LOX IMVI) | GI50 (NCI/ADR-RES) | GI50 (MCF7) |
| --- | --- | --- | --- | --- | --- | --- | --- | --- | --- | --- | --- | --- | --- | --- | --- | --- | --- | --- | --- |
| CC12CCC3C(CCC4CC(OC(=O)Cc5ccc(N(CCCl)CCCl)cc5)CCC43C)C1CCC(=O)N2 (stereo not drawn) | 17.1 µM (inactive) | 15.9 µM (inactive) | 18 µM (inactive) | 15.6 µM (inactive) | 4.84 µM (inactive) | 15.9 µM (inactive) | 3.67 µM (inactive) | 16.3 µM (inactive) | 7.26 µM (inactive) | 15.8 µM (inactive) | 15.7 µM (inactive) | 18.2 µM (inactive) | 18.2 µM (inactive) | 14 µM (inactive) | 20.6 µM (inactive) | 17.7 µM (inactive) |  |  |  |
| O=C1C2c3[nH]c4ccccc4c3C3CCSCC3C2C(=O)N1c1ccccc1 (stereo not drawn) | > 100 µM (inactive) | > 100 µM (inactive) | > 100 µM (inactive) | > 100 µM (inactive) | > 100 µM (inactive) | > 100 µM (inactive) |  | > 100 µM (inactive) | > 100 µM (inactive) | > 100 µM (inactive) | > 100 µM (inactive) | > 100 µM (inactive) | > 100 µM (inactive) | > 100 µM (inactive) | > 100 µM (inactive) | > 100 µM (inactive) | > 100 µM (inactive) |  |  |
| O=C1CCCCCCCCCCOC(=O)CCCCCCCCCCO1 | > 100 µM (inactive) | > 100 µM (inactive) | > 100 µM (inactive) | > 100 µM (inactive) | 21.8 µM (inactive) | > 100 µM (inactive) | 44.7 µM (inactive) | > 100 µM (inactive) | > 100 µM (inactive) | > 100 µM (inactive) | > 100 µM (inactive) | > 100 µM (inactive) | > 100 µM (inactive) | > 100 µM (inactive) | > 100 µM (inactive) | > 100 µM (inactive) | > 100 µM (inactive) |  |  |
| Nc1ccc2c(c1)C1=NNC(=O)CC1C2 (stereo not drawn) | > 100 µM (inactive) | 47.8 µM (inactive) | > 100 µM (inactive) | > 100 µM (inactive) | > 100 µM (inactive) | > 100 µM (inactive) |  | > 100 µM (inactive) | > 100 µM (inactive) | > 100 µM (inactive) | > 100 µM (inactive) | > 100 µM (inactive) | > 100 µM (inactive) | > 100 µM (inactive) |  |  | > 100 µM (inactive) | > 100 µM (inactive) | > 31.6 µM (inactive) |
| O=C(c1ccccc1)c1cc(Cl)ccc1NCn1nnc2ccccc21 |  | 9.46 µM (inactive) | 47.8 µM (inactive) | 76.4 µM (inactive) | 25.2 µM (inactive) |  | 35.6 µM (inactive) | 85.3 µM (inactive) | 69.5 µM (inactive) | > 100 µM (inactive) | > 100 µM (inactive) |  |  | 48.2 µM (inactive) | 81.1 µM (inactive) | 88.7 µM (inactive) | 73.3 µM (inactive) |  |  |
| Cc1nc2c(nc1Cl)nc(Oc1ccc(Cl)cc1)c1ccccc12 | > 100 µM (inactive) | 32 µM (inactive) | > 100 µM (inactive) | 43.6 µM (inactive) |  | > 100 µM (inactive) | > 100 µM (inactive) | 37.2 µM (inactive) | 62.4 µM (inactive) | 23.9 µM (inactive) | 27.9 µM (inactive) | 74.3 µM (inactive) | 57.5 µM (inactive) | 50.4 µM (inactive) |  | 85.7 µM (inactive) | 59.6 µM (inactive) |  |  |
| Cc1nc(N(CCO)CCO)c2sc(=S)n(-c3ccccc3)c2n1 | > 100 µM (inactive) |  | > 100 µM (inactive) |  | > 100 µM (inactive) |  | > 100 µM (inactive) | > 100 µM (inactive) | > 100 µM (inactive) | > 100 µM (inactive) | > 100 µM (inactive) | > 100 µM (inactive) | > 100 µM (inactive) | > 100 µM (inactive) | > 100 µM (inactive) |  |  |  |  |
| C=C(/C=C/C=C(/CCC=C(C)C)COC(C)=O)[C@@H]1CC[C@]2([C@H](CCCO)/C(=C(/C)C=O)CC[C@]2(C)O)[C@@H]1O | 13.7 µM (inactive) |  | 29.1 µM (inactive) | 15.8 µM (inactive) | 0.912 µM (active) | 3.05 µM (inactive) |  | 0.973 µM (active) | 0.414 µM (active) | 22.1 µM (inactive) | 4.61 µM (inactive) | 0.0429 µM (active) |  | 2.42 µM (inactive) | 14.2 µM (inactive) | 11 µM (inactive) | 10.4 µM (inactive) |  |  |
| CC(=O)O[C@H]1CC[C@@]2(C)[C@H](CC[C@@H]3[C@@H]2CC[C@]2(C)[C@@H](c4ccc(=O)oc4)C[C@H]4O[C@]342)C1 | 2.2 µM (inactive) | 0.675 µM (active) | 1.83 µM (inactive) | 0.327 µM (active) | 0.307 µM (active) | 0.397 µM (active) |  | 0.515 µM (active) | 0.212 µM (active) | 0.509 µM (active) | 2.28 µM (inactive) | 0.571 µM (active) | 0.34 µM (active) | 0.665 µM (active) |  |  | 0.904 µM (active) | 0.518 µM (active) | 1.27 µM (inactive) |
| O=S(O)CCCSSSCCCS(=O)O | > 100 µM (inactive) | > 100 µM (inactive) | > 100 µM (inactive) | > 100 µM (inactive) | > 100 µM (inactive) |  | > 100 µM (inactive) |  | > 100 µM (inactive) |  |  | > 100 µM (inactive) |  |  | > 100 µM (inactive) | > 100 µM (inactive) | > 100 µM (inactive) |  |  |
| O=C1C2C3SC(c4cc5ccccc5cc43)C2C(=O)N1c1ccccc1 (stereo not drawn) | 88.5 µM (inactive) | 39.4 µM (inactive) | > 100 µM (inactive) | > 100 µM (inactive) | > 100 µM (inactive) | 45 µM (inactive) |  | > 100 µM (inactive) |  | 90.6 µM (inactive) | > 100 µM (inactive) | 70.3 µM (inactive) | > 100 µM (inactive) | > 100 µM (inactive) | > 100 µM (inactive) | > 100 µM (inactive) | > 100 µM (inactive) |  |  |
| CC(=O)NC1=C(C)C(=O)c2c(nc3n2CCC3OC(=O)c2ccccc2)C1=O (stereo not drawn) | 1.86 µM (inactive) | 1.52 µM (inactive) | 2.03 µM (inactive) | 1.79 µM (inactive) | 1.92 µM (inactive) | 2.6 µM (inactive) | 2.37 µM (inactive) | 1.51 µM (inactive) | 2.37 µM (inactive) | 1.3 µM (inactive) | 2.05 µM (inactive) | 1.64 µM (inactive) | 1.75 µM (inactive) | 1.79 µM (inactive) | 6.43 µM (inactive) | 1.98 µM (inactive) | 1.51 µM (inactive) |  |  |
| CC(C)NC(=O)OCc1nnn2c1CCC2 | > 100 µM (inactive) | > 100 µM (inactive) | > 100 µM (inactive) | > 100 µM (inactive) | > 100 µM (inactive) |  | > 100 µM (inactive) | > 100 µM (inactive) | > 100 µM (inactive) | > 100 µM (inactive) |  | > 100 µM (inactive) | > 100 µM (inactive) | > 100 µM (inactive) | > 100 µM (inactive) | > 100 µM (inactive) | > 100 µM (inactive) |  |  |
